Here are results for three molecules from patent publication US11202751B2, “Whitening cosmetic composition comprising Caragana sinica root extract” (CELLTRION, INC., priority 2015, dated 2021).

What is called inhibition is the drop in the measured response relative to a control, in per cent. For orientation: IC50 means the concentration that gives 50% inhibition.

Data set [1] concerns tyrosinase, isolated and refined from a mushroom. The experiment in a line: Tyrosinase activity inhibition (absorbance at 475 nm, L-tyrosine substrate). The format is biochemical. As to the method:
A tyrosinase is an enzyme that promotes an oxidization process of a substance called tyrosine in vivo to produce a melanin. […] After that, 0.5 ml of a resulting L-tyrosine solution was inserted into a test tube, after which 0.5 ml of a sample fluid of the above Caragana Sinica root extract and the fraction thereof was added thereto, such that the test tube of a resulting mixture was left alone in a 37° C. constant temperature chamber for 10 minutes. […] The reaction was stopped by placing the test tube containing that reaction solution on ice to be rapidly cooled down, after which an absorbance of the resulting product was measured with a spectrophotometer at a wavelength of 475 nm. Control group was one containing 0.5 ml of a buffer solution instead of the Caragana Sinica root extract, and the comparison target was arbutin, well-known as a skin whitening agent. At that time, an inhibition rate of tyrosinase activity (%) was calculated according to the following Mathematical formula 1, wherein results thereof were shown in the following Table 2. [formula] [formula]

The test system of data set [2] is B16F1 melanin-forming cell. The experiment in a line: Inhibition of α-MSH-induced melanin production in B16F1 cells. Particulars: for IC50: B16F1, 70 to 74 hours. Type of data set: cell-based, mouse. As to the method: Specifically, the B16F1 melanin-forming cells, as a mouse-derived cell line, were obtained from American Type Culture Collection (ATCC) to use. The B16F1 melanin-forming cells were divided into a 6-well plate at a concentration of 2×10^5 per well, after which the cells were attached thereto, thus being divided at such a concentration as not to cause toxicity. After that, the ethanol extract of Caragana Sinica root and the fraction thereof obtained from the above Examples 1 to 5 were treated at each concentration, and then being cultured for 72 hours. After this 72-hour cultivation, the cells were taken off by trypsin-EDTA, after which the number of cells was measured, and then cells were collected by centrifugation. A quantification of melanin in cells was performed in such a way that modifying method of Lotan (Cancer Res., 40: 3345-3350, 1980). A cell pallet was washed once with PBS, after which 1 ml of a homogenization buffer solution (50 mM sodium phosphate, pH6.8, 1% Triton X-100, 2 mM PMSF) was added thereto and swirled for 5 minutes to crush the cells. 1N NaOH (10% DMSO) was added to a cell lysate obtained through centrifugation (3,000 rpm, 10 minutes) so as to dissolve the extracted melanin, after which an absorbance of the melanin was measured by microplate reader at 405 nm, and the melanin was quantified to measure an inhibition rate of melanin production (%) of a sample. The inhibition rate of melanin production (%) of the B16F1 melanin-forming cell was calculated according to the following [Mathematical formula 2], wherein results thereof were indicated at Table 3.
In order to confirm whitening effect of α-viniferin isolated from the fraction of Caragana Sinica root of the above Example 4, its effect on inhibiting a production of melanin was confirmed with regard to a B16F1 melanin-forming cell.
Specifically, the α-viniferin isolated from the ethyl acetate fraction of the ethanol extract of Caragana Sinica root obtained from the above Example 4 or arbutin, and α-MSH, a stimulant of melanin production, were treated at the same time, after which an amount of melanin was measured in 70 to 74 hours later as describe in the above Example 2-2.

The test system of data set [3] is B16F1 melanin-forming cell. As to the kind of experiment: Melanin production inhibition in B16F1 melanin-forming cells. The format is cell-based. The settings on record: Mus musculus, B16-F1, 72 hours, read-out: Inhibition rate of melanin production (%). From the text:
In order to confirm a whitening effect of the ethanol extract of Caragana Sinica root and the fraction thereof prepared in the above Examples 1 to 5, its effect on inhibiting a production of melanin was confirmed with regard to a B16F1 melanin-forming cell.
Specifically, the B16F1 melanin-forming cells, as a mouse-derived cell line, were obtained from American Type Culture Collection (ATCC) to use. The B16F1 melanin-forming cells were divided into a 6-well plate at a concentration of 2×10^5 per well, after which the cells were attached thereto, thus being divided at such a concentration as not to cause toxicity. […] After this 72-hour cultivation, the cells were taken off by trypsin-EDTA, after which the number of cells was measured, and then cells were collected by centrifugation. A quantification of melanin in cells was performed in such a way that modifying method of Lotan (Cancer Res., 40: 3345-3350, 1980). […] 1N NaOH (10% DMSO) was added to a cell lysate obtained through centrifugation (3,000 rpm, 10 minutes) so as to dissolve the extracted melanin, after which an absorbance of the melanin was measured by microplate reader at 405 nm, and the melanin was quantified to measure an inhibition rate of melanin production (%) of a sample. […]

Data set [4] in a line: Stability of isolated α-viniferin at 50° C. (HPLC content). The format is physicochemical. Particulars: for content by HPLC / content relative to initial: 50° C. As to the method: In order to confirm a stability of α-viniferin, the α-viniferin isolated from the ethyl acetate fraction of the ethanol extract of Caragana Sinica root obtained from the above Experimental Example 1 was stored under a condition of 50° C. for 2 weeks, after which content changes thereof were observed through an HPLC analysis by the same method of the above Experimental Example 1. A control group was kobophenol A isolated from the Caragana Sinica root extract, which was stored under the same condition with that of the α-viniferin, after which content changes thereof were observed by the same method.

With `OC[C@H]1O[C@@H](Oc2ccc(O)cc2)[C@H](O)[C@@H](O)[C@@H]1O` [Arbutin, arbutin], the “Inhibition rate of tyrosinase activity (%)” value turned out to be 21.2% in data set [1] (sample concentration 0.05%), 38.4% in data set [1] (sample concentration 0.1%) and 78.7% in data set [1] (sample concentration 0.2%). Further, the inhibition at 100 µM in data set [2] (Mus musculus, B16-F1, 100 μM, read-out: inhibition rate of melanin production induced by α-MSH) is 13%. Further, in data set [2] (Mus musculus, B16-F1, 200 μM, read-out: inhibition rate of melanin production induced by α-MSH), the inhibition at 200 µM came to 44%. Further, the inhibition at 400 µM in data set [2] (Mus musculus, B16-F1, 400 μM, read-out: inhibition rate of melanin production induced by α-MSH) was found to be 73%. It took 242 µM to reach half-maximal inhibition in data set [2] (Mus musculus, B16-F1) (IC50). Besides, in data set [3] (100 μg/ml), the inhibition at 100 µg/mL worked out at 63.5%. Moreover, the inhibition at 200 µg/mL in data set [3] (200 μg/ml) worked out at 75.7%.
Consider `Oc1ccc(C2Oc3cc(O)cc4c3[C@@H]2c2cc(O)cc3c2C(c2cc(O)cc5c2[C@@H]4[C@H](c2ccc(O)cc2)O5)[C@H](c2ccc(O)cc2)O3)cc1` (stereo partly drawn) [α-viniferin], for which, in data set [4] (50° C. for 2 weeks), the “content change at high temperature (in words)” value is “not decreased”. Further, the “content by HPLC” value in data set [4] (1 week) is reported as 249.60 ppm; in data set [4] (2 weeks), 253.45 ppm; in data set [4] (Initial), 252.8 ppm. Moreover, the “content relative to initial” value in data set [4] (1 week) was found to be 98.7%; in data set [4] (2 weeks), 100.3%. Further, the inhibition at 4 µM in data set [2] (Mus musculus, B16-F1, 4 μM, read-out: inhibition rate of melanin production induced by α-MSH) stood at 8%. Further, the inhibition at 6 µM in data set [2] (Mus musculus, B16-F1, 6 μM, read-out: inhibition rate of melanin production induced by α-MSH) worked out at 21%. For the same molecule, the inhibition at 8 µM in data set [2] (Mus musculus, B16-F1, 8 μM, read-out: inhibition rate of melanin production induced by α-MSH) was determined as 63%. Further, half-maximal inhibition in data set [2] (Mus musculus, B16-F1) (IC50) required 7 µM. For the same molecule, in data set [2] (ratio of IC50 values vs arbutin), the “whitening effect on α-MSH-induced melanin production, times higher than that of arbutin” value is reported as “about 35 times”.
As for kobophenol A, the “content by HPLC” value in data set [4] (1 week) was 115.6 ppm; in data set [4] (2 weeks) it was 103.6 ppm; in data set [4] (Initial), 121.4 ppm. In addition, the “content relative to initial” value in data set [4] (1 week) was 95.2%; in data set [4] (2 weeks), 85.3%.
